Molecules are shown by their SMILES.

In test [1] the target is Alkaline phosphatase, placental type (Homo sapiens, UniProt P05187). Briefly: inhibition of placental alkaline phosphatase – biochemical, uHTS hits, selectivity assay for mouse IAP inhibitor project, dose response (AID 488879).
Assay in test [2]: as above

Chain of Alkaline phosphatase, placental type (P05187 whole entry, looked up): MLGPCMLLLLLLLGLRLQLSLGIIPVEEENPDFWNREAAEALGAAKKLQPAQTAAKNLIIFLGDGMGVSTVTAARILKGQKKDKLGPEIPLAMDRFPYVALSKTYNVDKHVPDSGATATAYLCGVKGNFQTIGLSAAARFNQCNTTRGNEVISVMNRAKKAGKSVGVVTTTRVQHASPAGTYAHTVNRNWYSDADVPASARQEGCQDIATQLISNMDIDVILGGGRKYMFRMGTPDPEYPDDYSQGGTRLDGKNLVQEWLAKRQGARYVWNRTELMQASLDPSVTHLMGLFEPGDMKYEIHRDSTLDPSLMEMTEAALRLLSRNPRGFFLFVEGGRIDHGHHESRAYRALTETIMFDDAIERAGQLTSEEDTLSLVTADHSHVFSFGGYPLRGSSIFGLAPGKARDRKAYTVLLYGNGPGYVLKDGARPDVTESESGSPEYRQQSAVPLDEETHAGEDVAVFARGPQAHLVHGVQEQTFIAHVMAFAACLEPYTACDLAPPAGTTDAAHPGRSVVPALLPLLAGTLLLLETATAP

As to `Oc1ccc(C=Nn2c(O)csc2=S)c(O)c1O` [3-[[(E)-[2,3-bis(oxidanyl)-4-oxidanylidene-cyclohexa-2,5-dien-1-ylidene]methyl]amino]-2-sulfanylidene-1,3-thiazolidin-4-one], the half-maximal inhibitory concentration (IC50) in test [1] was more than 100 µM. Take `O=C1C=CC(C=NNC(=S)Nc2ccccc2[N+](=O)[O-])C=C1O` (stereo not given) [MLS000417596]: the IC50 in test [1] was more than 100 µM. On the same count and under the same terms, the value for `O=c1cc(O)cc2oc(-c3ccc(O)c(O)c3)c(O[C@@H]3O[C@H](CO)[C@@H](O)[C@H](O)[C@H]3O)c(O)c1-2` [Quercetin 3-O-beta-D-glucoside] was more than 100 µM. Turning to `O=C1Nc2ccccc2/C1=C1/SC(=S)N(NC(=O)c2ccccc2)C1=O` [N-[(5Z)-4-oxo-5-(2-oxo-1H-indol-3-ylidene)-2-sulfanylidene-3-thiazolidinyl]benzamide], in test [2], the IC50 is 5.31 µM. The compound `Cc1ccc(/C=C2\SC(=S)N(/N=C/C3C=C([N+](=O)[O-])C=CC3=O)C2=O)o1` (stereo not given) [(5Z)-5-[(5-methylfuran-2-yl)methylidene]-3-[[(E)-(3-nitro-6-oxocyclohexa-2,4-dien-1-ylidene)methyl]amino]-2-sulfanylidene-1,3-thiazolidin-4-one] had an IC50 in test [1] of more than 100 µM. The same measure, in the same setting: for `Cc1ccc(Cl)c2c1NC(=O)/C2=C1/NC(=S)NC1=O` the value was more than 100 µM; for `NS(=O)(=O)c1cc(C(=O)NNC2=c3ccccc3=NC2=O)ccc1Cl` [2-chloro-5-[[(2-oxoindol-3-yl)amino]carbamoyl]benzenesulfonamide], more than 100 µM.

Compound `C#CCOCCOCCOCCNc1nc(N2CCN(C(=O)CCCCCCCCCCNC(=O)[C@H]([C@@H](C)CC)n3cc(CCCCN=C(N)N)nn3)CC2)nc(N2CCN(C(=O)CCCCCCCCCCNC(=O)[C@@H]([C@H](C)O)n3cc(C)nn3)CC2)n1` [GT-RI] had an IC50 in test [1] of more than 100 µM. Same read-out and setting: the value for `COc1cc(C=CC(=O)CC(=O)C=Cc2ccc(O)cc2)ccc1O` [demethoxycurcumin] was more than 100 µM; that for `CC1NON=C1C(=O)NN=CC1=CC(=O)C(=O)C=C1` (stereo not given) [4-Methyl-furazan-3-carboxylic acid (3,4-dihydroxy-benzylidene)-hydrazide] was 18 µM; that for `COc1cc(C=Nn2c(O)csc2=S)ccc1O` [3-[[(E)-(3-methoxy-4-oxidanylidene-cyclohexa-2,5-dien-1-ylidene)methyl]amino]-2-sulfanylidene-1,3-thiazolidin-4-one] was more than 100 µM.

The compound `O=C(Nn1c(O)csc1=S)C(=O)Nn1c(O)csc1=S` [SMR000349781] showed a half-inhibitory concentration (IC50) in test [1] of more than 100 µM. As for `C#CCOCCOCCOCCNc1nc(N2CCN(C(=O)CCCCCCCCCCNC(=O)[C@@H](CCSC)n3cc(CCO)nn3)CC2)nc(N2CCN(C(=O)CCCCCCCCCCNC(=O)[C@H]([C@@H](C)CC)n3cc(CCCCCN)nn3)CC2)n1` [MLS002153719], the concentration for half-maximal inhibition (IC50) in test [1] is more than 100 µM.

On to `Nc1nnc(CC(=O)N/N=C/C2C=C([N+](=O)[O-])C=C(Br)C2=O)s1` (stereo not given) [2-(5-azanyl-1,3,4-thiadiazol-2-yl)-N'-[(E)-(5-bromanyl-3-nitro-6-oxidanylidene-cyclohexa-2,4-dien-1-ylidene)methyl]ethanehydrazide], for which, in test [1], the IC50 was more than 100 µM. In test [1], `NS(=O)(=O)c1ccc(N=Nc2c(=O)[nH]n3c(=O)c4c([nH]c23)CCCC4)cc1` [SMR000231775] yielded a half-maximal inhibitory concentration (IC50) of 21.8 µM.

Source of the values: BindingDB's records for doi:10.7270/Q2NS0SCW (Burnham Center For Chemical Genomics, 2010).
